# Source: ChEMBL document CHEMBL1201862, “PubChem BioAssay data set” (2004)
# Calls of active or inactive are those of the source.
# Experiments:
# [1] = biological target: T1, Heat shock factor protein 1 (Mus musculus, UniProt P38532); test: HSF1 potentiators in luciferase reporter cells, confirmation, cell-based, NIH3T3, luminescence, dose retest (AID 435004); format: functional;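 note: stress induced by proteasome inhibitor MG132 added 30 min after compound; luciferase reporter driven by HSF1 response element in NIH3T3 cells; actives raise luminescence as potentiators of the MG132 stress response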
# T1 sequence (P38532 whole entry): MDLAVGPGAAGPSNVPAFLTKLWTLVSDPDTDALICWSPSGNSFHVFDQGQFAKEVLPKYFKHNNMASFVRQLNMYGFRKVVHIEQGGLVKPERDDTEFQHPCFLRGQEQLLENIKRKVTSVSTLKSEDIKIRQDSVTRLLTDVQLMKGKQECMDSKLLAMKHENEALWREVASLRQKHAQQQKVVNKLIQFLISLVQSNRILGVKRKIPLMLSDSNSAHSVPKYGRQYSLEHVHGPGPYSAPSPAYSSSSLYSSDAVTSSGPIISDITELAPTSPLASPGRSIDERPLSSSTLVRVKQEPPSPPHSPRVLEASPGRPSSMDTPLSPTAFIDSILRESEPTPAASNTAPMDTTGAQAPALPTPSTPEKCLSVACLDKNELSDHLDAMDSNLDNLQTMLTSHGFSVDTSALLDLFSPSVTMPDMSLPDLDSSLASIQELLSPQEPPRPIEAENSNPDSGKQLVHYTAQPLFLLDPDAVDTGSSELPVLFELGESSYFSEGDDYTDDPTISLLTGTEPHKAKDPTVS
# Large T antigen = Large T antigen (Simian virus 40, UniProt P03070); format: functional, Betapolyomavirus macacae;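 note: Confirmatory-stage PubChem screen for compounds that inhibit SV40 T antigen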
# Large T antigen, sequence (P03070 whole entry): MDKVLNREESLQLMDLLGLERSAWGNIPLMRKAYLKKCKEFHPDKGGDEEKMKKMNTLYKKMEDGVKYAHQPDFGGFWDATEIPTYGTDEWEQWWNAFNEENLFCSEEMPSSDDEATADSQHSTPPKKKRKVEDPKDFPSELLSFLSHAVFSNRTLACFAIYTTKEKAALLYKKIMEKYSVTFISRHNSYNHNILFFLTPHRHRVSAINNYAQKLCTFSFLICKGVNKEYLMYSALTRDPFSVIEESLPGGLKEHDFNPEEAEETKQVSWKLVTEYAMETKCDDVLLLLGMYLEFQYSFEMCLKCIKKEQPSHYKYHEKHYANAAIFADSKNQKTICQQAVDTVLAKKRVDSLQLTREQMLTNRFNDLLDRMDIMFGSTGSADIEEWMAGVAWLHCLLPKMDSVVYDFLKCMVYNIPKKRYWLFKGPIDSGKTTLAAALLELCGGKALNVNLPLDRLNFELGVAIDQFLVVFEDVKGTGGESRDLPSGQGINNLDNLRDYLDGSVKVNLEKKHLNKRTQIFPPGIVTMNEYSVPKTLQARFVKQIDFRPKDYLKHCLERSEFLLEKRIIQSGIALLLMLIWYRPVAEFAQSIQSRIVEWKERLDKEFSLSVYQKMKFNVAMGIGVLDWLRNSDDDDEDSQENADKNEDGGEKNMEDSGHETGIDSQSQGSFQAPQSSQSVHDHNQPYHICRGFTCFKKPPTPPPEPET
# INS1 = test: beta cell apoptosis inhibitors, cytokine rescue, dose response, luminescence, retest (AID 449756); format: functional, cell-based; conditions: Rattus norvegicus;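 note: cell death triggered by IL-1 beta plus TNF-alpha plus IFN-gamma mixture; protective hits raise ATP signal compared with cytokine alone wells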
# [2] = biological target: DNA damage-inducible transcript 3 protein (Mus musculus, UniProt P35639); format: functional, Cricetulus griseus
# DNA damage-inducible transcript 3 protein, sequence (P35639 whole entry): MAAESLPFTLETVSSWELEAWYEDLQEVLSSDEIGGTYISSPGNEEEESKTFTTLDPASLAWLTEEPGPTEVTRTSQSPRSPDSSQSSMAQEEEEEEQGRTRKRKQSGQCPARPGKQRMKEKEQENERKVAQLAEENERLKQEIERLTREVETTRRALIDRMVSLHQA
# NS3 = NS3 (Hepatitis C virus, UniProt A3EZJ3); test: PubChem AID 2173; parameters: species or system Hepacivirus hominis
# NS3, sequence (A3EZJ3 whole entry): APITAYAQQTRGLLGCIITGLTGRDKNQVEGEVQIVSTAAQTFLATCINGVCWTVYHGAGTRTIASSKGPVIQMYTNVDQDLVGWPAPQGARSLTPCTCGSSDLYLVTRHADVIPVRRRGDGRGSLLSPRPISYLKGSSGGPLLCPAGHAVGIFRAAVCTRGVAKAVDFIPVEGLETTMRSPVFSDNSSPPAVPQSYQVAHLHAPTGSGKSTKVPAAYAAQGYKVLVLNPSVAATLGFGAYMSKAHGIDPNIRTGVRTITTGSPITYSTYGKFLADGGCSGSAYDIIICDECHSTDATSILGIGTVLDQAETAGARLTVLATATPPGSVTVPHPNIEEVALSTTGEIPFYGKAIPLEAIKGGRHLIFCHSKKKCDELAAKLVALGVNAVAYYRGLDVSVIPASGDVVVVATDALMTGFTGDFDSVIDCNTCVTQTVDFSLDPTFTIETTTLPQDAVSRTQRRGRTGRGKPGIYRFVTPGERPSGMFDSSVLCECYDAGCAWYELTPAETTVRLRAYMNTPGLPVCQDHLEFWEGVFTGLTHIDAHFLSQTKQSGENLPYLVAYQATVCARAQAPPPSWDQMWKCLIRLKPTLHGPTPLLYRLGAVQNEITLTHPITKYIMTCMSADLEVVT
# [3] = HEp-2 cell cytotoxicity, dose response, cytotoxicity control for RSV inhibitor project, HTS (AID 2410); format: functional; conditions: human respiratory syncytial virus
# Cytochrome P450 2C9 = Cytochrome P450 2C9 (Homo sapiens, UniProt P11712)
# Cytochrome P450 2C9, sequence (P11712 whole entry, the tested form may be a part): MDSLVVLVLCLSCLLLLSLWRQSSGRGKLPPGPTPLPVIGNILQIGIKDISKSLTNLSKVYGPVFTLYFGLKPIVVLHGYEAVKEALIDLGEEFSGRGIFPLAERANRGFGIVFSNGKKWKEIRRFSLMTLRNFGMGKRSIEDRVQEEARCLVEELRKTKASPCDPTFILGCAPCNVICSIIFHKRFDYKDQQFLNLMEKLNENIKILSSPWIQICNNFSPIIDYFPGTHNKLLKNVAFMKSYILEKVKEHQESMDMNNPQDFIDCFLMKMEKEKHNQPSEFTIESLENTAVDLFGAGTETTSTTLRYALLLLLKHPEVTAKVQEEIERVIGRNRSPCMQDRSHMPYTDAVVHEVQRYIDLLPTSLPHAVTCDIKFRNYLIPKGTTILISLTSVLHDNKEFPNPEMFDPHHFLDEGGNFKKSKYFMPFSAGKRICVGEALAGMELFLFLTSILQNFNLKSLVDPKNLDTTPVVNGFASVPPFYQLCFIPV
# [4] = biological target: T2, Type-1 angiotensin II receptor (Homo sapiens, UniProt P30556); test: AT1 receptor agonists, dose response, selectivity assay for APJ receptor agonist project, cell-based, uHTS hits (AID 488865); format: functional;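 note: beta-arrestin recruitment to AT1 measured by enzyme fragment complementation luminescence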
# T2 sequence (P30556 whole entry): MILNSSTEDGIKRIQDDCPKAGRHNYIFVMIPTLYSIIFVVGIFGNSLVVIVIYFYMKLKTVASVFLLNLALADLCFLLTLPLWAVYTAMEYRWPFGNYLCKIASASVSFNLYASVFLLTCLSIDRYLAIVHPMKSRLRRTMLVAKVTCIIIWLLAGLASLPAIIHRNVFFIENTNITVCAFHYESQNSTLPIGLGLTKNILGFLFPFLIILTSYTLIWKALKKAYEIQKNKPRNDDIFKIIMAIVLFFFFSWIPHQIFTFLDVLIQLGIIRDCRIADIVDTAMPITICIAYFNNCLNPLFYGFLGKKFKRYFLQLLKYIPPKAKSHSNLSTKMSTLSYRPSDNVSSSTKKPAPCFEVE
# [5] = biological target: T3, Runt-related transcription factor 1/Core-binding factor subunit beta (Homo sapiens, UniProt Q01196+Q13951); test: inhibitors of RUNX1 Runt–CBFb-SMMHC binding, biochemical, TR-FRET (AID 1438); format: protein assay
# T3 sequence (Q01196 whole entry, the tested form may be a part): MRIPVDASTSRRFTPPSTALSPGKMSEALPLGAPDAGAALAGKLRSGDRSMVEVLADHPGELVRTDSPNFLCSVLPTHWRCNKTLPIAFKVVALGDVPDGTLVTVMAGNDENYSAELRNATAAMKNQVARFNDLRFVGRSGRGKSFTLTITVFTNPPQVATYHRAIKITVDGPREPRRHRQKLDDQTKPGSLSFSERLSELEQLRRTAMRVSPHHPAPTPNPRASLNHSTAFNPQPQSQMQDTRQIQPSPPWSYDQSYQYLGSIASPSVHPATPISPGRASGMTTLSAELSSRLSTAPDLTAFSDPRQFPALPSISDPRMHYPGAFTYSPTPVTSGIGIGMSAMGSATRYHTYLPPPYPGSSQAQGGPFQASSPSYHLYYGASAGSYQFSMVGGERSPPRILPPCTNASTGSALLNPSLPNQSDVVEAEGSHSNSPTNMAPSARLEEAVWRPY
# T3 sequence (Q13951 whole entry, the tested form may be a part): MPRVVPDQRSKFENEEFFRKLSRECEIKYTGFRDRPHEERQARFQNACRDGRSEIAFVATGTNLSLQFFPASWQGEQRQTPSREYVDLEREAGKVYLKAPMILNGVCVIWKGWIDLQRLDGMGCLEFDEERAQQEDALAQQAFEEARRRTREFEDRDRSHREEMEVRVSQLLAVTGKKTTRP
# [6] = biological target: T3, Runt-related transcription factor 1/Core-binding factor subunit beta; test: inhibitors of RUNX1 Runt–CBFb-SMMHC binding, primary screen, biochemical, FRET, Cerulean-Runt, Venus-CBFb-SMMHC, uHTS (AID 1434); format: protein assay;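 note: partner is the CBFb-SMMHC leukemia fusion protein rather than wild-type CBFb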
# [7] = biological target: T4, Ubiquitin-conjugating enzyme E2 N (Homo sapiens, UniProt P61088); format: functional;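 note: Dose-response confirmation in a TR-FRET assay detecting UBC13-driven polyubiquitin chain formation, inhibition measured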
# T4 sequence (P61088 whole entry): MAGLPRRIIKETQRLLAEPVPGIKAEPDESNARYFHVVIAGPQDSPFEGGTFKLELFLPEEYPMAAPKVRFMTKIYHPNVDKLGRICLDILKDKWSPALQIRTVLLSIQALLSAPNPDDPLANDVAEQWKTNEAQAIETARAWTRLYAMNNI
# [8] = Vero E6 cell cytotoxicity, dose response, cytotoxicity control for non-replicating M. tuberculosis project, secondary assay (AID 492998); format: functional, VeroE6; conditions: Vero C1008
# [9] = THP-1 cell cytotoxicity, dose response, cytotoxicity control for non-replicating M. tuberculosis project (AID 489025); format: functional
# cells = format: functional
# [10] = HepG2 cell cytotoxicity, dose response, cytotoxicity control for non-replicating M. tuberculosis project (AID 489018); format: functional; conditions: Mycobacterium tuberculosis
# [11] = Luminescence Cell-Based Dose Retest to Confirm Inhibitors of Cancer Stem Cells. [Related pubchem assays (depositor defined):AID2717, AID2721]; format: functional; conditions: Homo sapiens
# Hexokinase = Hexokinase (Trypanosoma brucei, UniProt Q38C41); test: Confirmation assay for inhibitors of Trypanosoma brucei hexokinase 1-Analogue-first series. [Related pubchem assays (depositor defined):AID1430, AID1632, AID2516, AID2560, AID2579, AID2600, AID449725, AID492951]; format: functional
# Hexokinase, sequence (Q38C41 whole entry): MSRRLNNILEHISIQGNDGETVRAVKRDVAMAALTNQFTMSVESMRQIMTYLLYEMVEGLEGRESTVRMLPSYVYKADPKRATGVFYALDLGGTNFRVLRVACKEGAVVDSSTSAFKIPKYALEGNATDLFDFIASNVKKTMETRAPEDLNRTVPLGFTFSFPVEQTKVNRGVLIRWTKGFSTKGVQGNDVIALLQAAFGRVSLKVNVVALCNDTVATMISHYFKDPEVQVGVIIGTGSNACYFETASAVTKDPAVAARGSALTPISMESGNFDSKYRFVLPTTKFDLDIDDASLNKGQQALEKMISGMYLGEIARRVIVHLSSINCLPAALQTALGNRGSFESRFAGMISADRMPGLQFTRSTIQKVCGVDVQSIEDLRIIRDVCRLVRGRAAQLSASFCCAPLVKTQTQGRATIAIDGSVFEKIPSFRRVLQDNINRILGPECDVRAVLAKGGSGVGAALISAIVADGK
# X-box-binding protein 1 = X-box-binding protein 1 (Homo sapiens, UniProt P17861); format: functional, Cricetulus griseus;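 note: confirmatory dose-response counter-screen serving a CHOP assay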
# X-box-binding protein 1, sequence (P17861 whole entry): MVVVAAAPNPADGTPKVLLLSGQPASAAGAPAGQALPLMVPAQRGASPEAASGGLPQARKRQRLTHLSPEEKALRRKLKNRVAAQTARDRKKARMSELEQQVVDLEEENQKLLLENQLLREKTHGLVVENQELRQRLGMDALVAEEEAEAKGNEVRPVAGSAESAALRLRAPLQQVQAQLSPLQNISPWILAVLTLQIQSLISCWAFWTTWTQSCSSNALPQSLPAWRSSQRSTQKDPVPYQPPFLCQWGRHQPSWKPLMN
# Protein RecA = biological target: T5, Protein RecA (Mycobacterium tuberculosis, UniProt P9WHJ3); test: Fluorescence Cell-Free Homogeneous Dose Retest to Identify Inhibitors of RecA-Intein Splicing Activity. [Related pubchem assays (depositor defined):AID2097, AID2223, AID489010, AID492950]; format: functional
# T5 sequence (P9WHJ3 whole entry): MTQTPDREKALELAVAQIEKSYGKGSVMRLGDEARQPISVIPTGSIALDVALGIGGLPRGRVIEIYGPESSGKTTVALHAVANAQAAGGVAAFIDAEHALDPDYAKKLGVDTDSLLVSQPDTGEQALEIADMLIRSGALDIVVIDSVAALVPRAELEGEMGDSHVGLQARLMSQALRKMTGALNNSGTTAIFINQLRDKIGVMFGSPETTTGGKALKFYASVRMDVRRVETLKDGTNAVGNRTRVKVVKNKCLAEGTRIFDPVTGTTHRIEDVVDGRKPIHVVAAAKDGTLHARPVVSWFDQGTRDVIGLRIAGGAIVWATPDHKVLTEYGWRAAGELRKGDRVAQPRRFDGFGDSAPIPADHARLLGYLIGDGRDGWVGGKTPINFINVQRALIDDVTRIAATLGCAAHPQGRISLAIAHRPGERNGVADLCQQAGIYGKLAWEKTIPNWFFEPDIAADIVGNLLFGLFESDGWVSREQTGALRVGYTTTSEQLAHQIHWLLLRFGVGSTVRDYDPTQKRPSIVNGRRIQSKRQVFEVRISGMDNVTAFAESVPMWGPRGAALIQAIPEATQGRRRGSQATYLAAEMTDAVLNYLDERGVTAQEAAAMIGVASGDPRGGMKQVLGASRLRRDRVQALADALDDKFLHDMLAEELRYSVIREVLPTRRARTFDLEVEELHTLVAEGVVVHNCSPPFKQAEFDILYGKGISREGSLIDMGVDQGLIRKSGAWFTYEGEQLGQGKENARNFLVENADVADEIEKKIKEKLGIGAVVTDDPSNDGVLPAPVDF
# [12] = biological target: G-protein coupled receptor 55 (Homo sapiens, UniProt Q9Y2T6); test: GPR55 agonists via beta-arrestin recruitment, primary screen, imaging, U2OS cells, beta-arrestin-GFP redistribution (AID 1961); format: functional
# G-protein coupled receptor 55, sequence (Q9Y2T6 whole entry): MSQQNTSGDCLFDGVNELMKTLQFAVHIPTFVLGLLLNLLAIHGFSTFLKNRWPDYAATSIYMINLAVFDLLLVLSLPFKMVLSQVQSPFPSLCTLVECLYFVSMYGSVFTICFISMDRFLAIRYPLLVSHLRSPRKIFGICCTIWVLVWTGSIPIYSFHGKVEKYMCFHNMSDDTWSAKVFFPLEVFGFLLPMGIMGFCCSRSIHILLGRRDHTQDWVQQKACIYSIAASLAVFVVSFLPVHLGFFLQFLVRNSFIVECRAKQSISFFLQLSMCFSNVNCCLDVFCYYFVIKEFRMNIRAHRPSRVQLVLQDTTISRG
# [13] = biological target: T6, Replicative DNA helicase DnaB (Mycobacterium tuberculosis, UniProt P9WMR3); test: DnaB intein splicing inhibitors, dose response, biochemical, cell-free fluorescence (AID 449749); format: functional
# T6 sequence (P9WMR3 whole entry): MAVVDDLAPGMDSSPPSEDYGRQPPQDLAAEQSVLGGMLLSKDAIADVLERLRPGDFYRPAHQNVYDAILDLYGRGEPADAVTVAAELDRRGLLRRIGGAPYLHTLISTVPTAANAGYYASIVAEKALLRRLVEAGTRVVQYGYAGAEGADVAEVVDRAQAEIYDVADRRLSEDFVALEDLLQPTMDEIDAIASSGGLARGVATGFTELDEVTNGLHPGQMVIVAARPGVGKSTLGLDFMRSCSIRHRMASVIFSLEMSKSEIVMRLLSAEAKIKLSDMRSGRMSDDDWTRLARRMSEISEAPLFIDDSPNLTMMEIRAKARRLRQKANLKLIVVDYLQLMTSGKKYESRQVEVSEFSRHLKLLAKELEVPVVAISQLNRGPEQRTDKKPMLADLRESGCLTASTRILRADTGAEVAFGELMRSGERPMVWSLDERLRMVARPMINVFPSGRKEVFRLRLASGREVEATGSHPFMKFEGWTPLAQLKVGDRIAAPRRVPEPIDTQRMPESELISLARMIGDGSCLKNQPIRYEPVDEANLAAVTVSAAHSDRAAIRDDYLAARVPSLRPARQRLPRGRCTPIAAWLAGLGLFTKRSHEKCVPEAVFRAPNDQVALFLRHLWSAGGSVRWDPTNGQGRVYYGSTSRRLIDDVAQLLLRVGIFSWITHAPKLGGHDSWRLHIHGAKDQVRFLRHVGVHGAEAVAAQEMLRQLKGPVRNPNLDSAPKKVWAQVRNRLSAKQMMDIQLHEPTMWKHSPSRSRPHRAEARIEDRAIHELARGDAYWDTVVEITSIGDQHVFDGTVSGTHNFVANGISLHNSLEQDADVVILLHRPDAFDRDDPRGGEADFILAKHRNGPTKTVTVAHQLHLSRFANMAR
# [14] = biological target: Glyceraldehyde-3-phosphate dehydrogenase (Homo sapiens, UniProt P04406)
# Glyceraldehyde-3-phosphate dehydrogenase, sequence (P04406 whole entry): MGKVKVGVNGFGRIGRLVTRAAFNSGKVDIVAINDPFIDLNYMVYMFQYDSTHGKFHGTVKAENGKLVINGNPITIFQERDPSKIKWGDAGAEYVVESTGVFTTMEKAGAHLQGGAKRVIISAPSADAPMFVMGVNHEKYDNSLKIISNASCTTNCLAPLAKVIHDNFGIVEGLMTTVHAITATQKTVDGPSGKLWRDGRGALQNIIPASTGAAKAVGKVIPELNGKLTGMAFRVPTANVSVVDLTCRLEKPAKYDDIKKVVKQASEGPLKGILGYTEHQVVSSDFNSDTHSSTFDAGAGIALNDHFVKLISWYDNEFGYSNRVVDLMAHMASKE
# [15] = biological target: T7, Alkaline phosphatase, tissue-nonspecific isozyme (Homo sapiens, UniProt P05186); test: human TNAP enzyme inhibitors, SAR follow-up, biochemical, luminescent, dose response (AID 1056)
# T7 sequence (P05186 whole entry): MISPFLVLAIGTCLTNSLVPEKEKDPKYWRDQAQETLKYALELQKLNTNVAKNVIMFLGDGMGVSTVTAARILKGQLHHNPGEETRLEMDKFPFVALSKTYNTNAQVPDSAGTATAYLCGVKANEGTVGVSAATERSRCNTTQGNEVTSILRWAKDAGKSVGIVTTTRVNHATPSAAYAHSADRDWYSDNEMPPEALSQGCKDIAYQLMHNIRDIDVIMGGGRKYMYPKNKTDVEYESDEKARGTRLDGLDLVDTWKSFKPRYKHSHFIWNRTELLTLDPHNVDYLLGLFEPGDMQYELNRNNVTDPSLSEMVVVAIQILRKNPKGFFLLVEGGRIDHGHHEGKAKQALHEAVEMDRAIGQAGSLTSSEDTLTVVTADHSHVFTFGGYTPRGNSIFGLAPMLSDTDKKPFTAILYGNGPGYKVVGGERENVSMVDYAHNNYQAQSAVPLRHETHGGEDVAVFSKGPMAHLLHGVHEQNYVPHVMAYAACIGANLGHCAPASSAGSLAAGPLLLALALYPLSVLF
# CAAX prenyl protease 2 = CAAX prenyl protease 2 (Saccharomyces cerevisiae S288c, UniProt Q03530); format: biochemical
# CAAX prenyl protease 2, sequence (Q03530 whole entry): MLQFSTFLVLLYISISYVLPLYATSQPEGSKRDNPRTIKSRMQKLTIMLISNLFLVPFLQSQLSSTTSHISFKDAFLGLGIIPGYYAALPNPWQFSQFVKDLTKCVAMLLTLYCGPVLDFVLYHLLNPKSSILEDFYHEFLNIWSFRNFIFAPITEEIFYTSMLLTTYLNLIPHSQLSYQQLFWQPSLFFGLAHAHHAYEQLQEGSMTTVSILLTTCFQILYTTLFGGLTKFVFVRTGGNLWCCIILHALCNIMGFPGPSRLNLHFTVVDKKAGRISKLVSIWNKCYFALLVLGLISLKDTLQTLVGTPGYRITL
# [16] = cytotoxicity toward NIH3T3 fibroblasts, dose response, counter-screen, cell-based, ATP luminescence, mouse fibroblasts (AID 2010); format: functional;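 note: cells exposed to compound for about 90 hours before reading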
# Vero [17] = test: cells; format: functional; conditions: Chlorocebus sabaeus
# HT-1080 = test: cytotoxicity in HT1080 fibrosarcoma cells, cell-based, fluorescence readout (AID 620); format: functional; conditions: Homo sapiens
# Vero [18] = test: cells; format: functional, cell-based; conditions: Chlorocebus sabaeus
# [19] = biological target: Luciferin 4-monooxygenase (Photinus pyralis, UniProt P08659); test: Counter Screen for Luciferase-based Assay Positives. [Related pubchem assays: 620, 618, 411 ]
# Luciferin 4-monooxygenase, sequence (P08659 whole entry): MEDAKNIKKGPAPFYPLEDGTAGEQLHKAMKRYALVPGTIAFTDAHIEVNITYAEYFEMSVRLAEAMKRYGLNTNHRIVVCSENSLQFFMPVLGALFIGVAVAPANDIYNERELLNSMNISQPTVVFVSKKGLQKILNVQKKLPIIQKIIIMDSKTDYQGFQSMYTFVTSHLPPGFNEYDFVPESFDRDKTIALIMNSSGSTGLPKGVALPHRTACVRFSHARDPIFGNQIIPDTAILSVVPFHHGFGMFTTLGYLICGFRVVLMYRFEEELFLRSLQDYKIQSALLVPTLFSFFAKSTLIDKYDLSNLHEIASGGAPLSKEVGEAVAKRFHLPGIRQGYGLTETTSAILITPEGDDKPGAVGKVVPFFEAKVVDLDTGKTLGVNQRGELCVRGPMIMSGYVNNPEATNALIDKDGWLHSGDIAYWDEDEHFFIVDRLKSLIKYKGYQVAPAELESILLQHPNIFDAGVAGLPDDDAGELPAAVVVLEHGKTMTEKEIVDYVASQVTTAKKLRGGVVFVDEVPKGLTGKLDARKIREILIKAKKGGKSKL
# [20] = inhibitors of intracellular T. cruzi replication, confirmation, NIH3T3 host cells, beta-gal luminescence (AID 2044); format: functional, cell-based;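 note: intracellular parasites grown in NIH/3T3 mouse fibroblasts as host cells; luminescent beta-galactosidase reporter signal from transgenic T. cruzi replicating inside host cells; inhibitors lower the luminescence signal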
compound,measurement,setting,value
Cc1ccc(N2C(=O)NC(=O)/C(=C\C=C\c3ccco3)C2=O)cc1C,EC50,[1],4.85 µM (active)
same,IC50,Large T antigen,16.4 µM (active)
same,AC50,INS1,4.83 µM (active)
same,Absolute IC50 (CHOP),[2],10 µM
same,IC50,NS3,14.4 µM (not active)
same,CC50,[3],> 50 µM (active)
COc1cc2c(cc1NC(=O)c1cc(-c3cccnc3)nc3ccc(C)cc13)oc1ccccc12,AC50,Cytochrome P450 2C9,2.51 µM (inconclusive)
same,EC50,[4],> 100 µM (inactive)
CCOC(=O)c1cc2c(=O)n3cccc(C)c3nc2n(Cc2ccco2)/c1=N/C(=O)c1ccccc1,IC50,[5],> 100 µM (inactive)
same,IC50,[6],13.1 µM (active)
c1ccc(C[C@H]2CNCCN2CCCCC2CCCCC2)cc1,IC50,[7],> 20 µM (inactive)
same,CC50,[8],18.1 µM (active)
same,CC50,[9],13.9 µM (active)
same,IC50,cells,27.4 µM (active)
same,CC50,[10],12.2 µM (active)
same,AC50,[11],7.01 µM (active)
Oc1ccc(Cl)cc1C1=NNC(c2cccs2)C1 (stereo unspecified),CC50,[8],> 20 µM (active)
same,CC50,[9],22.6 µM (active)
same,IC50,cells,44.6 µM (active)
same,CC50,[10],> 20 µM (active)
COc1ccc(C(=O)O)c(NC(=O)c2ccc(Cl)cc2)c1,IC50,Hexokinase,> 25 µM (inactive)
CCc1nc(NCC(C)C)c(C#N)c2c1COC(C)(C)C2,Absolute IC50 (XBP1),X-box-binding protein 1,10 µM
same,Absolute IC50 (CHOP),[2],10 µM
CCOC(=O)c1c(NC(=S)N2CCCCC2)sc2c1CCN(C(=O)OCC)C2,EC50,[1],12.3 µM (active)
same,EC50,Protein RecA,12.7 µM (active)
same,EC50,[12],5.41 µM (active)
same,AC50,[13],3.64 µM (active)
COC(=O)c1cc(-c2ccc(Cl)c(Cl)c2Cl)n[nH]1,IC50,[14],> 10 µM (inconclusive)
same,IC50,[15],0.24 µM (active)
O=C(O)CCc1ccc(-c2cccs2)n1Cc1ccco1,AC50,CAAX prenyl protease 2,2.57 µM (active)
CCOC(=O)/C(=C\c1ccccc1)C(=O)c1cc(C(C)=O)c(Nc2ccccc2)s1,EC50,[16],6.8 µM (active)
same,CC50,Vero [17],14.8 µM (active)
same,EC50,HT-1080,20.3 µM (active)
same,AC50,INS1,5.42 µM (active)
same,IC50,Vero [18],> 25 µM (active)
same,EC50,[19],< 0.2 µM (active)
same,EC50,[12],1.06 µM (active)
same,EC50,[20],2.35 µM (active)
O=c1s[nH]c2ccccc12,IC50,Hexokinase,> 25 µM (inactive)
CCc1ccc(C2C3=C(O)CC(C)(C)CC3=Nc3c2c(O)nc2nc(C)nn32)cc1 (stereo unspecified),IC50,[5],31.2 µM (active)
same,IC50,[6],3.68 µM (active)
